Reference: a melting point compilation (Tetko et al.; mined from patent text by program, amines drawn as free bases though some values may be those of a salt)

SMILES	melting point
CCOC(=O)CCCOc1ccc(C(C)=O)cc1	59 to 61 °C
Cn1cnc2nc(-c3cc(C(C)(C)C)c(O)c(C(C)(C)C)c3)nn2c1=S	> 300 °C
COC(CNC(=O)c1ccc(N2CCN(C(=O)c3ccccc3C(F)(F)F)CC2)nn1)C(C)(C)C (centres undefined)	65 to 68 °C
O=C(Nc1cccc(O)c1)C(CS)C(F)(F)F (centres undefined)	147 to 151 °C
CSc1cncc(O)c1	179 °C
CN(C)/C=C(\C#N)c1cccc(Br)c1	102 to 105 °C
COC(=O)C(=C/c1ccccc1)/C(=C\c1cc(OC)c(OC)c(OC)c1)C(=O)O	131 to 133 °C
CCNC(=O)Nc1cc(F)cc2c1OCCC21SC(=O)NC1=O (centres undefined)	197 to 199 °C
CC1(C)Oc2ccc(C(=O)O)cc2S1	124 to 125 °C
CCc1nc(CC(=O)O)no1	58 to 60 °C
C/C(=C\c1ccc(P(=O)(O)O)cc1)c1ccc2c(c1)C(C)(C)CCC2(C)C	208 to 209 °C
COC(=O)c1cccc(S(=O)(=O)N(C)C)c1CS(N)(=O)=O	133 to 142 °C
O=C(Nc1nc2cnccc2s1)N1CCCC1	218 to 220 °C
COC(=O)c1ccc(/C=C/C(=O)O)s1	180 °C
CC[C@@H]1C(=O)N(Cc2ccc(OC)cc2OC)[C@H]1CC(=O)O (relative stereo)	131 °C
Cc1nc2ccc(Cl)cc2s1	85 to 86 °C
O=C1C=CC(O)(c2ccccn2)C=C1	116 to 117 °C
CN(C)C(=O)c1cccnc1S(=O)(=O)Br	108 to 111 °C
Cn1nc(-c2c(Cl)cccc2Cl)nc1-c1sc(Cl)c(Cl)c1Cl	146 to 147 °C
COc1nc(NC(=O)NS(=O)(=O)c2ccccc2OC(Cl)=CCl)nc(OC)n1	199 to 200 °C
O=C(CCCCCl)c1ccc2c(c1)Cc1cc(C(=O)CCCCCl)ccc1O2	134 to 135 °C
CC12C(=CCC3C1CCC1(C)C3CCC13OCCO3)CC(O)CC2O (centres undefined)	205 to 206 °C
Cn1c(=O)c2c(ncn2CCCN2CC=C(c3c[nH]c4ccccc34)CC2)n(C)c1=O	243 °C
CCN(CC)CCNC(=O)c1cc(Cl)c(N)cc1OCCS(C)=O (centres undefined)	110 to 114 °C
CNC(=O)n1cnc(C(N)=O)c1N	165 to 169 °C

SMILES	melting point
Oc1c(Br)cnc2ccccc12	286 to 287 °C
COc1ccc(C2CCCCC2=O)cc1 (centres undefined)	90 °C
COCOc1cc(CCC(=O)c2c(OC)cc(OC)c(CCC(C)C)c2O)ccc1OC	93.5 to 94.5 °C
ClCOc1ccc(Cl)cc1Br	56 to 57.5 °C
Cc1ccc(C)n1-c1c(SC(F)(F)F)c(C#N)nn1-c1c(Cl)cc(C(F)(F)F)cc1Cl	142 to 144 °C
CC1(C)Oc2cc3nonc3cc2C(N2CCC(O)C2=O)C1O (centres undefined)	195 to 196 °C
Cc1nc(COc2cc(N)c(Cl)cc2C(=O)O)cs1	188 to 189 °C
O=C(Nc1nc(-c2ccco2)c(C(=O)c2cc[nH]c2)s1)c1ccncc1	259 to 260 °C
COc1cccc2c1C13CCN(CC4CC4)C(C2)C1(O)CCC(=O)C3 (centres undefined)	133 to 135 °C
O=C1c2c(Cl)cccc2-n2cnc(-c3nnco3)c2[C@@H]2CCN12	264 to 265 °C
CC(=O)Nc1cc([N+](=O)[O-])c(Cl)cc1F	125 to 126 °C
CC(C)COP(C)(=O)c1ccccc1S(N)(=O)=O (centres undefined)	50 to 52 °C
Clc1cnc2cccc(Cl)c2n1	120 to 122 °C
CC#CCOc1cc(N(C)c2cccc(F)c2F)ncn1	77.5 °C
CCn1nnnc1NCC(O)COc1cccc(CN2CCCCC2)c1 (centres undefined)	111 to 113 °C
C[Si](C)(C)CCCSCCCNC(=O)n1cc(F)c(=O)[nH]c1=O	105 to 106 °C
COC(=O)[C@H](Cc1c[nH]c2ccccc12)N(CCN(CC(=O)OC(C)(C)C)CC(=O)OC(C)(C)C)CCN(CC(=O)OC(C)(C)C)CC(=O)OC(C)(C)C	71 °C
CCOP(=O)(OCC)C1CCc2cc(C(F)(F)F)cc3[nH]c(=O)c(=O)n1c23 (centres undefined)	161 °C
CCCCOc1ccccc1-c1ncc(-c2nnn[nH]2)c(=O)[nH]1	244 to 247 °C
COc1ccccc1CC(C)NCC(O)c1cccc(Cl)c1 (centres undefined)	85 to 87 °C
COC(=O)c1cc(Cl)cc(Cl)n1	75 to 77 °C
O=C1C(O)N=C(c2ccccc2F)c2ccccc2N1C1CCNCC1 (centres undefined)	190 to 192 °C
C(#Cc1ccc(C=CC2=CC(c3ccc(C#Cc4ccccc4)cc3)N(c3ccccc3)N2)cc1)c1ccccc1 (centres undefined)	212 to 214 °C
CCCCCCCCCCCCCCCCCC(=O)CO	78 to 80 °C

Second part, the compound after the results:

melting point	SMILES
130 to 131 °C	CN1CCC2(CC1)CN(c1ccccc1[N+](=O)[O-])c1cc(Cl)ccc12
219 to 221 °C	CC(C)c1ccc2c(c1)C(=O)c1ccc(-c3nnn(C)n3)cc1S2(=O)=O
109 to 110 °C	O=C1CCN(Cc2ccccc2O)CC1C(c1ccccc1)c1ccccc1 (centres undefined)
170 °C	COc1cc2c(cc1Nc1ncc(Cl)c(Nc3ccccc3S(=O)(=O)C(C)C)n1)CCN(CC(=O)N1CCN(C)CC1)CC2
87 to 88 °C	O=c1c2ccccc2ccc2ccc(SC(F)(F)F)cc12
216 to 217 °C	Cc1ccc(Cn2c3c(c4cc(-c5cccc(C)c5)ccc42)C(=O)C(=O)OC3)cc1
118 to 119 °C	CCOC(=O)c1cccc2nc(CC)n(Cc3ccc(-c4ccccc4C(=O)C(=O)OC)cc3)c12
212 to 215 °C	O=C1NCCc2[nH]c3ccccc3c21
> 260 °C	COc1cccc(OC)c1-c1cc(C(=O)NC2(C(=O)O)C3CC4CC(C3)CC2C4)nn1-c1ccnc2cc(Cl)ccc12 (centres undefined)
207 to 208 °C	CCOP(=O)(Cc1ccc(NC(=O)/C=C/c2cnn(Cc3ccccc3)c2-c2ccc(F)cc2)cc1)OCC
77 to 81 °C	CC(C)(C)OC(=O)CNC(=O)CC(c1ccccc1)c1ccccc1
165 to 166 °C	CCOc1cc(N(Cc2cncnc2)c2ccc(C(=O)O)cc2)ccc1OC(F)F
262 °C	Cc1[nH]c(=O)n(C2CCCCC2)c1-c1ccc(OCc2ccccc2)cc1
251 to 253 °C	NC(=O)c1c(-c2cccc(F)c2)c(Cl)n2c1CN(C(=O)N[C@H]1CC[C@H](O)CC1)CC2
154 to 156 °C	CC(C)(C)OC(=O)N1C(=O)C2(COc3cc4c(cc32)OCO4)c2c(Br)cccc21 (centres undefined)
176 to 177 °C	Cc1oc(-c2ccccc2)nc1COc1ccc2c(-c3ccccc3)c(COc3nn(-c4ccccc4)cc3C=O)oc2c1
127 to 129 °C	CCNc1nc(Nc2ccccc2C)c2ccccc2n1
179 to 180 °C	COc1cccc([C@H]2O[C@H](CC(=O)Nc3cc(Cl)cc4cc(C(=O)O)oc34)C(=O)N(CC(C)(C)CO)c3ccc(Cl)cc32)c1OC
197 to 199 °C	Cc1cc(C(=O)NN=C(N)CS(=O)(=O)c2ccccc2)oc1C
243 °C	COc1ccc(-c2nc3cc(C(C(C)C)n4ccnc4)ccc3[nH]c2=O)cc1OC (centres undefined)
276 to 281 °C	COc1cc(CNC(=O)c2nc3scc(COc4ccc(C(=O)O)cc4)c3c(=O)[nH]2)ccc1F
172 to 173 °C	CC1=C(C(=O)c2ccc(C(=O)NCCC#N)cc2)C(=O)C2C=CC=CC2C1=O (centres undefined)
255 °C	CCOC(=O)C1=C(N)NC2=C(C(=O)CCC2)C1c1cccc(Br)c1 (centres undefined)
141 to 142 °C	Cc1c(CCl)oc2ccc([N+](=O)[O-])cc12
123 to 124 °C	COc1cc(COc2nn(C)cc2C=O)ccc1OCc1nc(-c2ccccc2)oc1C

melting point	SMILES
> 300 °C	O=c1[nH]c2ccc3c(c2n(Cc2ccccc2)c1=O)CCCN3
141 to 143 °C	CN(C(=O)OC(C)(C)C)c1cc(Oc2ccc(C#N)cc2)ccc1[N+](=O)[O-]
149 to 153 °C	COc1cc(OC)nc(NC(=O)NS(=O)(=O)c2nc(C)cc3c2C(=O)OC3)n1
101 to 103 °C	Cc1nc(OC(C)C(=O)O)nn1-c1cccc(Cl)c1 (centres undefined)
242 to 244 °C	O=C1Cc2c(cccc2C(=O)O)Sc2ccc(F)cc21
135 to 140 °C	CCc1nc(C)c(C(=O)OC(C)OC(=O)C(C)(C)OC)n1Cc1ccc2oc(-c3ccccc3-c3nnn[nH]3)c(Br)c2c1 (centres undefined)
176 to 178 °C	Nc1sc2c(c1C(=O)c1cccc(C(F)(F)F)c1)CCN(CCCc1ccccc1)C2
226 to 227 °C	Cc1nnc(-c2ccc3occ(-c4ccc(O)cc4)c3c2)o1
197 to 198 °C	CCNc1ccc(C2(C)C(=O)Nc3cc(Cl)cc(Cl)c3C2=O)cc1 (centres undefined)
127 to 128 °C	Cc1cc(C(O)(c2ccc(OC(F)(F)F)cc2)C(F)(F)F)ccc1N (centres undefined)
68 to 70 °C	CC(O)(CCC#N)c1ccc(Oc2cccc(Cl)c2)cc1 (centres undefined)
90 to 91 °C	COc1cc(COc2nn(Cc3ccccc3)cc2CO)ccc1OCc1nc(-c2ccccc2)oc1C
150 to 153 °C	COC(=O)[C@H](Cc1ccc([N+](=O)[O-])cc1)NC(=S)c1c(C)cccc1Cl
232 to 235 °C	CC(C)(C)c1cc(C(=O)Nc2cnc3ccc(Cl)cc3c2-c2ccccc2)cc(C(C)(C)C)c1O
183 to 186 °C	NC(=O)N(O)CCNC(=O)c1cccc(S(=O)(=O)c2ccc(Cl)cc2)c1
223 to 225 °C	COc1cc(CNc2n[nH]c3ncnc(Nc4cccc(Cl)c4)c23)ccc1O
135 to 137 °C	COCc1ccc(-c2cn(-c3cc(C(=O)OC)c([N+](=O)[O-])cc3C(F)(F)F)cn2)cc1
148 to 151 °C	Clc1ccc2c(c1)N=C(N1CCN(CC3CC3)CC1)c1ccccc1N2
189 to 191 °C	COc1ccc(CNC(=O)c2cc([N+](=O)[O-])ccc2N)cc1
156 to 157 °C	Cc1ccc2c(c1)C(C(=O)Nc1c(Cl)cccc1Cl)c1ccccc1CO2 (centres undefined)
114 to 115 °C	O=C(CCCc1ccc(-c2ccc(Cl)cc2)cc1)c1ccc(CN2CCCC2)cc1
85 to 90 °C	CN1CCOC(CN2C(=O)C3(COc4cc5c(cc43)OCCO5)c3ccccc32)C1 (centres undefined)
203 to 205 °C	C#Cc1cc(NC(=O)c2cnn(-c3ccc(Cl)cc3)c2C)ccc1N1CCC(N2CCOCC2)CC1
183 to 184 °C	c1ccc(COc2cccc3c2nc2n3CCCO2)cc1
95 to 97 °C	COc1ccc(-n2nc(CO)cc2-c2ccc(Cl)cc2)cc1
